Where two headings read alike, the source gives them in different places.
Experiments:
CSF-1R = CSF-1R (Homo sapiens, UniProt P07333); test: CSF-1R in vitro biochemical kinase study (ADP-Glo assay); settings: 500 μM ATP, * = average of multiple tests, read-out: Enzymatic experiment CSF1R IC50
Experimental: A. CSF-1R In Vitro Biochemical Kinase Study
In the present invention, the inhibitory activity of compounds against the CSF-1R activity was determined by using CSF-1R ADP-Glo assay. The compound-mediated inhibition effect was achieved by inhibiting the production of ADP from consumption of ATP, and the activities of compounds were evaluated by using the ADP-Glo kit (Promega, cat. No. V9101). The specific experimental process was as follows:
1. The kinase reaction performed in the present invention was carried out in a 384-well plate (Perkinelmer, cat. No. 6007290), 3.95 nM of CSF-1R, 500 μM of ATP, and 0.2 mg/mL of polypeptide (Poly (Glu4, Try1), Sigma, cat. No. P0275) were respectively weighed and added to each well:
2. following reagents were then added to each well to reach the final reaction system: 40 mM Tris, pH 7.5, 20 mM MgCl2, 0.01% Triton X-100, 0.1 mg/mL BSA, 2.5 mM DTT, and 0.1% DMSO;
3. the reaction was conducted at 30° C. for 60 min;
4. then an equal volume of stop solution (ADP-Glo) was added to the kinase reaction system;
5. the mixed solution was incubated at 25° C. for 60 min, and the kinase reaction was then terminated;
6. a two-fold volume of detection reagent was then added to each well;
7. the mixed solution was incubated at 25° C. for 30 min;
8. the compound IC50 value was measured by using a plate reader (Tecan, M1000) and a four-parameter curve was generated in Graphpad Prism.

PDGFRA kinase = PDGFRA kinase (Homo sapiens, UniProt P16234); test: PDGFRA in vitro biochemical kinase study (Caliper EZ Reader); settings: Caliper mobility shift; read-out: Enzymatic experiment PDGFRA IC50
Experimental: (§1) B. KIT/PDGFRA In Vitro Biochemical Kinase Study
(§2) 1. Preparation of 1-Fold Kinase Buffer and Stop Solution
(§3) 1.2 stop solution: 100 mM HEPES, pH 7.5, 0.015% Brij-35, 0.2% Coating Reagent #3, 50 mM EDTA
(§4) 2. Preparation of Compound Solution
(§5) 2.1 Dilution of Compound Solution
(§6) 1) The final concentration of the compound solution was 40 μM, and the concentration of the prepared stock solution was 50 times of the final concentration, i.e., 2 mM.
(§7) 2) 80 μL of 100% DMSO was added to the second well of the 96-well plate, then 20 μL of 10 mM compound solution was added, and thereby 2 mM compound solution was prepared, 60 μL of 100% DMSO was added to other wells, 20 μL of compound was taken from the second well, added to the third well and diluted by 4 times. This serial 4-time dilution was conducted in sequence for the total of 10 concentrations.
(§8) 2.2 5-Fold Compound Solution Transferred to a Reaction Plate
(§9) 1) 10 μL of solution was taken from each well of the above 96-well plate and added to another 96-well plate, and 90 μL of kinase buffer was added.
(§10) 2) 5 μL of solution was taken from the above 96-well plate and added to a 384-well reaction plate.
(§11) 1) KIT/PDGFRA kinase was added to the 1-fold kinase buffer solution to obtain a 2.5-fold kinase solution.
(§12) 2) FAM-labeled polypeptide and ATP were added to the 1-fold kinase buffer solution to obtain a 2.5-fold substrate solution.
(§13) 3) 10 μL of 2.5-fold kinase solution was added to the 384-well reaction plate, which already contained 5 μL of 5-fold compound in 10% DMSO. And the mixed solution was incubated at room temperature for 10 min.
(§14) 4) 10 μL of 2.5-fold substrate solution was added to the 384-well reaction plate.
(§15) 5) Kinase reaction and termination: the mixed solution was incubated at 28° C. for a certain period of time, and 25 μL of stop solution was added to stop the reaction.
(§16) 2.4 Data Reading of Caliper EZ Reader II
(§17) 2.5 Calculation of Percent Inhibition and IC50
(§18) 1) Percent conversion data were copied from the Caliper EZ Reader. […]

KIT kinase = KIT kinase (Homo sapiens, UniProt P10721); test: KIT in vitro biochemical kinase study (Caliper EZ Reader); settings: Caliper mobility shift; read-out: Enzymatic experiment KIT IC50
Experimental: as §1, §2, §3, §4, §5, §6, §7, §8, §9, §10, §11, §12, §13, §14, §15, §16, §17, §18

[1] = system: M-NFS-60 mouse myeloid leukemia lymphocytes; test: CSF-1R-related cell proliferation experiment (Cell Titer Glo), M-NFS-60 cells with M-CSF; format: cell-based; settings: Lymphocyte, 72 h, 3 days, CTG, * = average of multiple tests
Experimental: C. CSF-1R-Related Cell Proliferation Experiment
Functional effects of compounds on cell proliferation were evaluated by using Cell Titer Glo (CTG) study in the present invention. M-NFS-60 mouse myeloid leukemia lymphocytes (cat. No. CCBJ078) from National Institutes For Food and Drug Control were cultured in the incubator under conditions of RPMI 1640 (Gibco, cat. No. 11875-119), 10% fetal bovine serum (Gibco, 10099-141), human 10 ng/mL M-CSF macrophage colony-stimulating factor (R&D, cat. No. MVN0915101), 37° C., and 5% CO2. Since ATP is an index for viable cell metabolism, CTG (Promega, #G7573) reagent is a homogeneous detection method for detecting the number of viable cells in the culture by quantifying ATP. Therefore, compound-mediated inhibition for cell proliferation/survival was evaluated by quantifying ATP content in cells, and the specific experimental process was as follows:
1. The cells were plated into a tissue-culture-medium-treated 96-well plate (Costar #3904) with 5,000 cells/well/80 μL fresh culture medium;
2. 24 hours later, 10 μL culture medium containing testing compound with 10-fold of final concentration was added to each well;
3. 10 μL of culture medium containing M-CSF with 10-fold of the final concentration was then added to each well;
4. dosage effect was evaluated by testing the 3-fold serial dilutions of the compound;
5. after the cells were incubated for 3 days at 37° C. and 5% CO2, the inhibition on cell survival was quantified after 50 μL of CTG was added and the luminescence assay was performed;
6. the compound concentration leading to half maximal inhibitory (IC50) and the compound concentration leading to absolute half maximal inhibitory (Absolute IC50) were measured by a plate reader (M1000, Tecan) and a four-parameter curve fit in Graphpad Prism 7.

Sequence of CSF-1R (P07333 20-972): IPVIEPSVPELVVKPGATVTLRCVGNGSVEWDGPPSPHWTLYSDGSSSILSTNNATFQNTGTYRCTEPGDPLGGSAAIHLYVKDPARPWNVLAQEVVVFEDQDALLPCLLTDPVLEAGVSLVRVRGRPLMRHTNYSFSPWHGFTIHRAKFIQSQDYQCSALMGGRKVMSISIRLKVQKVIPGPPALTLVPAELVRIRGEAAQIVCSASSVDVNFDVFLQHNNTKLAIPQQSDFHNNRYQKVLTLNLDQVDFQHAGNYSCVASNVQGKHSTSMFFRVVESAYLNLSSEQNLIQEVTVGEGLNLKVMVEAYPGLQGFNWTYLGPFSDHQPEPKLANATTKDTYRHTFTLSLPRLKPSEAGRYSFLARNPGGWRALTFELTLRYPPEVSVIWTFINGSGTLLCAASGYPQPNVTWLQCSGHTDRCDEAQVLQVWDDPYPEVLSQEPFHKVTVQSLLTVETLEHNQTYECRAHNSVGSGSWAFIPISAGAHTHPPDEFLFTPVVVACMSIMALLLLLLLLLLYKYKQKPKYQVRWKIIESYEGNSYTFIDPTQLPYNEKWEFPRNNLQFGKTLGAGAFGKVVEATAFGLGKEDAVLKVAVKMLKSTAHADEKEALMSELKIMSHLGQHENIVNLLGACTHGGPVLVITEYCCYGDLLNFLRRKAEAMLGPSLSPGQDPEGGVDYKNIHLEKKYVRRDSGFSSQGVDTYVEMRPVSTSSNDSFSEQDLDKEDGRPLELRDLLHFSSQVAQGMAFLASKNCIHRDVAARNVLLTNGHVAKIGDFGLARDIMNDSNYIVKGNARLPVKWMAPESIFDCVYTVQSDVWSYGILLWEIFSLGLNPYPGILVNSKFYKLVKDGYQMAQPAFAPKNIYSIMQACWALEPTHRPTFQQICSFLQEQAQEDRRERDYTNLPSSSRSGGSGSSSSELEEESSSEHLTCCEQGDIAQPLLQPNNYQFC
Sequence of PDGFRA kinase (P16234 24-1089): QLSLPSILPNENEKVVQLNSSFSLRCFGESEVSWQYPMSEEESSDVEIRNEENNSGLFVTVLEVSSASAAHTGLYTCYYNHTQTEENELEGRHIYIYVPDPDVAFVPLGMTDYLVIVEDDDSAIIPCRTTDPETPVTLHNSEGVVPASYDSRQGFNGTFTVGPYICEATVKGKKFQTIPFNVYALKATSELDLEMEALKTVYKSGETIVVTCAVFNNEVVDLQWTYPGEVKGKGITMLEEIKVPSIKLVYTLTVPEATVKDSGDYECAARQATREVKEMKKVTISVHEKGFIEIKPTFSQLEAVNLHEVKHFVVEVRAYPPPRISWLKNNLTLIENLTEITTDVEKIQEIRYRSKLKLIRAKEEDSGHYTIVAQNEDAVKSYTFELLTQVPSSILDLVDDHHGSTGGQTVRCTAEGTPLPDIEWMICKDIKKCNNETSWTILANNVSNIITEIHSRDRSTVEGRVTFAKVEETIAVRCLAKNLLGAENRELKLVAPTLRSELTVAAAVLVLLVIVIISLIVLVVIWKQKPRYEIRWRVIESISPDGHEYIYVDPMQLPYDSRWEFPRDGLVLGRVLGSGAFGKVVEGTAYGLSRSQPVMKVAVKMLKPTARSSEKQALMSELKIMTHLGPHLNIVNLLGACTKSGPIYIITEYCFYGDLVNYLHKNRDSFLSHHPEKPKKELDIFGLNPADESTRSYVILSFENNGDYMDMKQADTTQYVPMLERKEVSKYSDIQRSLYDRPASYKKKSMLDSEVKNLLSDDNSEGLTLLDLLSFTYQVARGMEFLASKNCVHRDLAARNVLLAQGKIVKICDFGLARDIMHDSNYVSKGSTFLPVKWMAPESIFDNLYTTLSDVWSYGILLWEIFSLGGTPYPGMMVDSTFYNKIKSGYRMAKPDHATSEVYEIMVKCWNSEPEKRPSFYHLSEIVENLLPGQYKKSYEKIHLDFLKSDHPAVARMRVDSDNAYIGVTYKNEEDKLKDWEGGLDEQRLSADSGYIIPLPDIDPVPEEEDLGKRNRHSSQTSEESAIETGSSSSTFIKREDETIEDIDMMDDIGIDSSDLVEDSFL
Sequence of KIT kinase (P10721 26-976): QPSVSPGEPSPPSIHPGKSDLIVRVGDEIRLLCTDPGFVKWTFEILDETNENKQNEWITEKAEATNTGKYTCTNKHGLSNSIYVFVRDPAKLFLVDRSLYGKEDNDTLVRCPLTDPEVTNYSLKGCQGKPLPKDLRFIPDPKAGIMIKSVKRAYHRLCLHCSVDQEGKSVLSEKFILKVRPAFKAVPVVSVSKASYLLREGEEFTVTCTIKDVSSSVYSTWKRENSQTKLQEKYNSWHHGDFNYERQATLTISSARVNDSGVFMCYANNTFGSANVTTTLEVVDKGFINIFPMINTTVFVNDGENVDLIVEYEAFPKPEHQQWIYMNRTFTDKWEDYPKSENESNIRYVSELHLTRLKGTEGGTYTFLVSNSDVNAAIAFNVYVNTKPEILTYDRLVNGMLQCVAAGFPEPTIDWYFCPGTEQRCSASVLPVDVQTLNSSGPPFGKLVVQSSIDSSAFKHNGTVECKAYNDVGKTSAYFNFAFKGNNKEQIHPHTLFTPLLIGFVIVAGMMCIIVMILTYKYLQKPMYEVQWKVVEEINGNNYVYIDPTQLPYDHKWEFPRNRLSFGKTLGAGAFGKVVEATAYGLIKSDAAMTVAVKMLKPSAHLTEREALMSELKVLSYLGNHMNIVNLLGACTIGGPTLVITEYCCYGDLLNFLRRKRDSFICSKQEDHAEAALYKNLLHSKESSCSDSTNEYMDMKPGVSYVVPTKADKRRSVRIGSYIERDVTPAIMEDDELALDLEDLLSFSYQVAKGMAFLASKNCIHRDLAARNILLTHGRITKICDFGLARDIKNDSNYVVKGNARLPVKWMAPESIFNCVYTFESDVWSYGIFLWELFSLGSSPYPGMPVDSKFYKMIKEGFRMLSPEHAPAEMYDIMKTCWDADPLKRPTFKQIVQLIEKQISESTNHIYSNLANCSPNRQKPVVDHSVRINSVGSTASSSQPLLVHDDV

`Cc1nc(-c2cnc3n(c2=O)CCCN3C(C)C)ccc1Oc1ccnc(-c2cnn(C)c2)c1` [Example 5, 9-isopropyl-3-(6-methyl-5-((2-(1-methyl-1H-pyrazol-4-yl)pyridin-4-yl)oxy)pyridin-2-yl)-6,7,8,9-tetrahydro-4H-pyrimido[1,2-a]pyrimidin-4-one] showed an IC50 (CSF-1R) of 95.2 nM, an IC50 (PDGFRA kinase) of 226 nM and an IC50 (KIT kinase) of 22.6 nM. It also gave an IC50 ([1]; read-out: Cytological experiment CSF1R IC50) of 127 nM and an IC50 ([1]; absolute half maximal inhibition, read-out: Cytological experiment CSF-1R Absolute IC50) of 114 nM.

Source: patent US11130762B2, “Azaaryl derivative, preparation method therefor, and application thereof for use in pharmacy” (Abbisko Therapeutics Co., Ltd., priority 2017, dated 2021)
